By Km is commonly meant the concentration of substrate that gives half-maximal velocity.

The text below walks through data of paper PMC11395237, “Characteristics of a Novel Zearalenone Lactone Hydrolase ZHRnZ and Its Thermostability Modification” (International Journal of Molecular Sciences, 2024).

What all share (assay): HPLC-fluorescence of residual substrate
Assay type in all cases: biochemical
Common to all, as to details: read-out: Km (μg.mL^-1); pH 9.0, 45 °C, 10 min, 25 μg/mL enzyme, 10-60 μg/mL ZEN

In test [1] the target is T1, ZHRnZ (Rosellinia necatrix, UniProt A0A1W2TNW3, E122R).
T1 construct: gene SAMD00023353_4301030; His-tag from pET28a (BamHI/XhoI), codon-optimized gene, E. coli BL21(DE3), Ni-NTA purified; homodimer by homology model
An excerpt:
(§1) HPLC-fluorescence of residual substrate on ZHRnZ

In test [2] the target is T2, ZHRnZ (Rosellinia necatrix, UniProt A0A1W2TNW3).
T2 construct: gene SAMD00023353_4301030; His-tag from pET28a (BamHI/XhoI), codon-optimized gene, E. coli BL21(DE3), Ni-NTA purified; homodimer by homology model
Source text: as §1

Test [3] addresses T3, ZHRnZ (Rosellinia necatrix, UniProt A0A1W2TNW3, E122Q).
T3 construct: gene SAMD00023353_4301030; His-tag from pET28a (BamHI/XhoI), codon-optimized gene, E. coli BL21(DE3), Ni-NTA purified; homodimer by homology model
Source text: as §1

Molecules are shown by their SMILES.

T1 sequence (A0A1W2TNW3 whole entry E122R): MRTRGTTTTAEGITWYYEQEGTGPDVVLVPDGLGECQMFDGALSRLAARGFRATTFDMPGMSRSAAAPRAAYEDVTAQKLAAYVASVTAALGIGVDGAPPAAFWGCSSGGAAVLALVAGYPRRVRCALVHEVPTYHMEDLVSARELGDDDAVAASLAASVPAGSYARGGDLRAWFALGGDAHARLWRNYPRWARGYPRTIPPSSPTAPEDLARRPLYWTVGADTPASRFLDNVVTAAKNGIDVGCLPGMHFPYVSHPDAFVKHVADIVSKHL
T3 sequence (A0A1W2TNW3 whole entry E122Q): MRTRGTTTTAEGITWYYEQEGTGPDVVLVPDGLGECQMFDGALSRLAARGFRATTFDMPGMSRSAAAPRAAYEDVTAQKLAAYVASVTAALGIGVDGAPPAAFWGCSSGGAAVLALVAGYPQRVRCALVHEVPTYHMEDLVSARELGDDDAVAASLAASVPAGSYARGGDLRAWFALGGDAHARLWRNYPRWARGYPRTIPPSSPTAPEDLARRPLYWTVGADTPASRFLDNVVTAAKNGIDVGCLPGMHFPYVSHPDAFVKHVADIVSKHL
T2 sequence (A0A1W2TNW3 entry or part of it): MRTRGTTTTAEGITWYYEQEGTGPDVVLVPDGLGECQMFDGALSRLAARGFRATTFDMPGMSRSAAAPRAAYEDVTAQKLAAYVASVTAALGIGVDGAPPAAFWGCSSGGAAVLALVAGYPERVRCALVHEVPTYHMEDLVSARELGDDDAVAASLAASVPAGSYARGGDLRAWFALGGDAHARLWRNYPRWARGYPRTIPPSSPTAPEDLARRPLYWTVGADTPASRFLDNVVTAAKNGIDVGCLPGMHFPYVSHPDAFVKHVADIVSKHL

Regarding `C[C@H]1CCCC(=O)CCC/C=C/c2cc(O)cc(O)c2C(=O)O1` [ZEN], the Km on ZHRnZ [1] was 25.5 µM; on ZHRnZ [2], 67.6 µM; at ZHRnZ [3] it was 271 µM.
